Measurements published in the supplement of paper PMC10627819.

Tests used:
B. subtilis 168 [1] = assay: fitness (endpoint OD595 vs no drug) (fraction); higher = more growth
Summary of the method: (§1)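 Cultures at OD595 0.01 were dispensed into 384-well plates in TSB, LB Lennox or CY and incubated at 37 °C. Every 30 min for 14 h, OD595 was read and corrected by the first reading. Fitness is the optical density at entry into stationary phase relative to the robust mean of no-drug control wells, capped at 1.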

S. aureus DSM 20231 [2] = assay: as above
Summary of the method: as §1

S. aureus Newman [3] = assay: as above
Summary of the method: as §1

S. pneumoniae D39V [4] = assay: as above
Summary of the method: as §1

B. subtilis 168 [5] = assay: Bliss interaction score (quartile over a dose matrix) (fitness difference); higher = more antagonism (negative = synergy)
Summary of the method: (§2)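 Each plate was normalised to the robust mean of its own no-drug wells, using OD595 at entry into stationary phase, with values capped at 1. This normalised growth is the fitness value. The Bliss score is the difference between observed and product-expected fitness, with single-drug fitness inferred from the combination data and quartiles taken over technical, biological and donor/recipient replicates.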

S. aureus DSM 20231 [6] = assay: as above
Summary of the method: as §2

S. aureus Newman [7] = assay: as above
Summary of the method: as §2

S. pneumoniae D39V [8] = assay: as above
Summary of the method: as §2
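Throughout, for Bliss interaction score (quartile over a dose matrix): first quartile when negative (synergy) and third quartile when positive (antagonism).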

CCC[C@@H]1C[C@@H](C(=O)N[C@@H]([C@H]2O[C@H](SC)[C@H](O)[C@@H](O)[C@H]2O)[C@H](C)Cl)N(C)C1 [Clindamycin] + Cc1onc(-c2ccccc2)c1C(=O)N[C@@H]1C(=O)N2[C@@H]1SC(C)(C)[C@@H]2C(=O)O [Oxacillin]
fitness, B. subtilis 168 [1], one replicate
Settings | first compound 0.0039 µg/mL | first compound 0.0078 µg/mL | first compound 0.0156 µg/mL | first compound 0.0625 µg/mL | first compound 0.125 µg/mL | first compound 0.25 µg/mL
partner 0.0078 µg/mL | 0.953 | 0.903 | 0.828 | – | – | –
partner 0.0155 µg/mL | 0.963 | 0.897 | 0.805 | – | – | –
partner 0.031 µg/mL | 0.947 | 0.865 | 0.822 | – | – | –
partner 0.075 µg/mL | – | – | – | 0.237 | 0.0774 | 0.0582
partner 0.15 µg/mL | – | – | – | 0.063 | 0.066 | 0.0705
partner 0.3 µg/mL | – | – | – | 0.0546 | 0.0304 | 0.0517

Settings | fitness
B. subtilis 168 [1], first compound 0.0625 µg/mL, partner 0.002 µg/mL | 0.546
B. subtilis 168 [1], first compound 0.0625 µg/mL, partner 0.004 µg/mL | 0.531
B. subtilis 168 [1], first compound 0.0625 µg/mL, partner 0.008 µg/mL | 0.524
B. subtilis 168 [1], first compound 0.125 µg/mL, partner 0.002 µg/mL | 0.396
B. subtilis 168 [1], first compound 0.125 µg/mL, partner 0.004 µg/mL | 0.367
B. subtilis 168 [1], first compound 0.125 µg/mL, partner 0.008 µg/mL | 0.367
B. subtilis 168 [1], first compound 0.25 µg/mL, partner 0.002 µg/mL | 0.382
B. subtilis 168 [1], first compound 0.25 µg/mL, partner 0.004 µg/mL | 0.372
B. subtilis 168 [1], first compound 0.25 µg/mL, partner 0.008 µg/mL | 0.361
S. aureus DSM 20231 [2], first compound 0.0312 µg/mL, partner 0.0312 µg/mL | 0.486
S. aureus DSM 20231 [2], first compound 0.0312 µg/mL, partner 0.0625 µg/mL | 0.355
S. aureus DSM 20231 [2], first compound 0.0625 µg/mL, partner 0.0156 µg/mL | 0.0861
S. aureus DSM 20231 [2], first compound 0.0625 µg/mL, partner 0.0312 µg/mL | 0.0909
S. aureus DSM 20231 [2], first compound 0.0625 µg/mL, partner 0.0625 µg/mL | 0.0694
S. aureus DSM 20231 [2], first compound 0.125 µg/mL, partner 0.0156 µg/mL | 0.0621
S. aureus DSM 20231 [2], first compound 0.125 µg/mL, partner 0.0312 µg/mL | 0.0625
S. aureus DSM 20231 [2], first compound 0.125 µg/mL, partner 0.0625 µg/mL | 0.0779
S. aureus Newman [3], first compound 0.0312 µg/mL, partner 0.0156 µg/mL | 0.71
S. aureus Newman [3], first compound 0.0312 µg/mL, partner 0.0312 µg/mL | 0.673
S. aureus Newman [3], first compound 0.0312 µg/mL, partner 0.0625 µg/mL | 0.557
S. aureus Newman [3], first compound 0.0625 µg/mL, partner 0.0625 µg/mL | 0.31
S. aureus Newman [3], first compound 0.125 µg/mL, partner 0.0156 µg/mL | 0.189
S. aureus Newman [3], first compound 0.125 µg/mL, partner 0.0312 µg/mL | 0.105
S. aureus Newman [3], first compound 0.125 µg/mL, partner 0.0625 µg/mL | 0.0973
S. pneumoniae D39V [4], first compound 0.0125 µg/mL, partner 0.005 µg/mL | 0.754
S. pneumoniae D39V [4], first compound 0.0125 µg/mL, partner 0.01 µg/mL | 0.786
S. pneumoniae D39V [4], first compound 0.0125 µg/mL, partner 0.02 µg/mL | 0.804
S. pneumoniae D39V [4], first compound 0.015 µg/mL, partner 0.01 µg/mL | 0.854
S. pneumoniae D39V [4], first compound 0.015 µg/mL, partner 0.02 µg/mL | 0.817
S. pneumoniae D39V [4], first compound 0.015 µg/mL, partner 0.04 µg/mL | 0.546
S. pneumoniae D39V [4], first compound 0.025 µg/mL, partner 0.005 µg/mL | 0.561
S. pneumoniae D39V [4], first compound 0.025 µg/mL, partner 0.01 µg/mL | 0.521
S. pneumoniae D39V [4], first compound 0.025 µg/mL, partner 0.02 µg/mL | 0.524
S. pneumoniae D39V [4], first compound 0.03 µg/mL, partner 0.01 µg/mL | 0.7
S. pneumoniae D39V [4], first compound 0.03 µg/mL, partner 0.02 µg/mL | 0.677
S. pneumoniae D39V [4], first compound 0.03 µg/mL, partner 0.04 µg/mL | 0.423
S. pneumoniae D39V [4], first compound 0.05 µg/mL, partner 0.005 µg/mL | 0.278
S. pneumoniae D39V [4], first compound 0.05 µg/mL, partner 0.01 µg/mL | 0.291
S. pneumoniae D39V [4], first compound 0.05 µg/mL, partner 0.02 µg/mL | 0.29

Settings | Bliss interaction score
B. subtilis 168 [5] | 0.0308
S. aureus DSM 20231 [6] | 0.0814
S. aureus Newman [7] | 0.09
S. pneumoniae D39V [8] | 0.105

CCC[C@@H]1C[C@@H](C(=O)N[C@@H]([C@H]2O[C@H](SC)[C@H](O)[C@@H](O)[C@H]2O)[C@H](C)Cl)N(C)C1 [Clindamycin] + O=C(O[C@@H]1Cc2c(O)cc(O)cc2O[C@@H]1c1cc(O)c(O)c(O)c1)c1cc(O)c(O)c(O)c1 [EGCG]
fitness, B. subtilis 168 [1], one replicate
Settings | first compound 0.0039 µg/mL | first compound 0.0078 µg/mL | first compound 0.0156 µg/mL
partner 6.25 µg/mL | 0.986 | 0.862 | 0.85
partner 12.5 µg/mL | 0.511 | 0.402 | 0.383
partner 25 µg/mL | 0.401 | 0.362 | 0.374

fitness
Settings | partner 6.25 µg/mL | partner 12.5 µg/mL | partner 25 µg/mL | partner 50 µg/mL
B. subtilis 168 [1], first compound 0.25 µg/mL | 0.356 | 0.337 | 0.119 | –
S. aureus DSM 20231 [2], first compound 0.0312 µg/mL | – | 0.485 | 0.49 | 0.416
S. aureus DSM 20231 [2], first compound 0.0625 µg/mL | – | – | 0.172 | 0.115
S. aureus DSM 20231 [2], first compound 0.125 µg/mL | – | 0.0823 | 0.0417 | 0.0383
S. aureus Newman [3], first compound 0.0312 µg/mL | – | 0.603 | 0.587 | 0.598
S. aureus Newman [3], first compound 0.125 µg/mL | – | – | 0.0771 | 0.046
S. pneumoniae D39V [4], first compound 0.0125 µg/mL | – | 0.703 | 0.686 | 0.605
S. pneumoniae D39V [4], first compound 0.015 µg/mL | – | 0.734 | 0.661 | 0.538
S. pneumoniae D39V [4], first compound 0.025 µg/mL | – | 0.466 | 0.405 | 0.392
S. pneumoniae D39V [4], first compound 0.03 µg/mL | – | 0.466 | 0.414 | 0.3
S. pneumoniae D39V [4], first compound 0.05 µg/mL | – | 0.173 | 0.168 | 0.178
S. pneumoniae D39V [4], first compound 0.06 µg/mL | – | 0.312 | 0.315 | 0.22

Settings | Bliss interaction score
B. subtilis 168 [5] | 0.136
S. aureus DSM 20231 [6] | 0.0371
S. aureus Newman [7] | -0.0691
S. pneumoniae D39V [8] | -0.108

O=C(O[C@@H]1Cc2c(O)cc(O)cc2O[C@@H]1c1cc(O)c(O)c(O)c1)c1cc(O)c(O)c(O)c1 [EGCG] + CC1=C\[C@@H](O)CC(=O)Cc2nc(co2)C(=O)N2CCC=C2C(=O)O[C@H](C(C)C)[C@H](C)/C=C/C(=O)NC\C=C\1 [Virginiamycin M1]
fitness
Settings | partner 0.0625 µg/mL | partner 0.125 µg/mL | partner 0.25 µg/mL | partner 0.5 µg/mL | partner 1 µg/mL | partner 2 µg/mL
B. subtilis 168 [1], first compound 6.25 µg/mL | 0.973 | 0.974 | 0.997 | – | – | –
S. aureus DSM 20231 [2], first compound 12.5 µg/mL | 0.86 | 0.931 | 0.686 | – | – | –
S. aureus DSM 20231 [2], first compound 25 µg/mL | 0.859 | ≥ 1 | 0.904 | – | – | –
S. aureus DSM 20231 [2], first compound 50 µg/mL | 0.76 | 0.986 | 0.82 | – | – | –
S. aureus Newman [3], first compound 12.5 µg/mL | 0.811 | 0.858 | 0.817 | – | – | –
S. aureus Newman [3], first compound 25 µg/mL | 0.868 | 0.897 | 0.865 | – | – | –
S. aureus Newman [3], first compound 50 µg/mL | 0.925 | 0.96 | 0.878 | – | – | –
S. pneumoniae D39V [4], first compound 12.5 µg/mL | – | – | – | 0.973 | 0.958 | 0.921
S. pneumoniae D39V [4], first compound 25 µg/mL | – | – | – | ≥ 1 | ≥ 1 | 0.89
S. pneumoniae D39V [4], first compound 50 µg/mL | – | – | – | 0.965 | 0.946 | 0.889

fitness, one replicate
Settings | first compound 12.5 µg/mL | first compound 25 µg/mL | first compound 50 µg/mL
S. aureus DSM 20231 [2], partner 0.5 µg/mL | 0.807 | 0.715 | 0.694
S. aureus DSM 20231 [2], partner 1 µg/mL | 0.67 | 0.65 | 0.543
S. aureus Newman [3], partner 0.5 µg/mL | 0.678 | 0.728 | 0.682
S. aureus Newman [3], partner 1 µg/mL | 0.702 | 0.715 | 0.677
S. aureus Newman [3], partner 2 µg/mL | 0.671 | 0.624 | 0.622
S. pneumoniae D39V [4], partner 0.15 µg/mL | 0.891 | 0.872 | 0.883
S. pneumoniae D39V [4], partner 0.3 µg/mL | 0.823 | 0.847 | 0.842

Settings | Bliss interaction score
B. subtilis 168 [5] | 0.0619
S. aureus DSM 20231 [6] | 0.119
S. aureus Newman [7] | 0.0651
S. pneumoniae D39V [8] | -0.092

O=C(O[C@@H]1Cc2c(O)cc(O)cc2O[C@@H]1c1cc(O)c(O)c(O)c1)c1cc(O)c(O)c(O)c1 [EGCG] + CCN(CC)CCOC(=O)c1ccc(N)cc1 [Procaine]
fitness
Settings | partner 85.5 µg/mL | partner 171 µg/mL | partner 342 µg/mL
B. subtilis 168 [1], first compound 6.25 µg/mL | 0.913 | 0.882 | 0.88
B. subtilis 168 [1], first compound 12.5 µg/mL | 0.715 | 0.75 | 0.599
B. subtilis 168 [1], first compound 25 µg/mL | – | – | 0.227
S. aureus DSM 20231 [2], first compound 12.5 µg/mL | 0.821 | 0.821 | 0.833
S. aureus DSM 20231 [2], first compound 25 µg/mL | 0.809 | 0.858 | 0.886
S. aureus DSM 20231 [2], first compound 50 µg/mL | – | 0.854 | –
S. aureus Newman [3], first compound 12.5 µg/mL | 0.729 | 0.764 | 0.77
S. aureus Newman [3], first compound 25 µg/mL | 0.641 | 0.71 | 0.78
S. pneumoniae D39V [4], first compound 12.5 µg/mL | 0.965 | 0.984 | 0.912
S. pneumoniae D39V [4], first compound 25 µg/mL | 0.969 | ≥ 1 | 0.969
S. pneumoniae D39V [4], first compound 50 µg/mL | 0.996 | 0.903 | ≥ 1

Settings | Bliss interaction score
B. subtilis 168 [5] | -0.0744
S. aureus DSM 20231 [6] | 0.0893
S. aureus Newman [7] | -0.124
S. pneumoniae D39V [8] | 0.0572
